Assay results taken from patent publication US20050153395A1, “Unique integrin binding site in connective tissue growth factor (CTGF)” (CHILDREN'S HOSPITAL INC., priority 2003, published 2005).

Assays:
[1] = system: hepatic stellate cells (HSC); test: HSC adhesion assay on coated wells (CyQUANT fluorescence); type: cell-based, rat; settings: for inhibition of HSC adherence to CTGF[257-272]: peptide-coated wells; for inhibition of HSC adherence to CTGF[257-272] / inhibition of CTGF4-mediated HSC adhesion: heparin 2 μg/ml; for inhibition of CTGF4-mediated HSC adhesion: wells coated 2 μg/ml CTGF4, antibody/IgG 25 μg/ml; for inhibition of CTGF4-mediated HSC adhesion / inhibition of CTGF1-4-mediated HSC adhesion / inhibition of CTGF3-4-mediated HSC adhesion: EDTA 10 mM, GRGDsp 1 mM, Echistatin 2 μM; for inhibition of CTGF1-4-mediated HSC adhesion: wells coated 2 μg/ml CTGF1-4; for inhibition of CTGF3-4-mediated HSC adhesion: wells coated 2 μg/ml CTGF3-4
Experimental: CTGF4 is known to be expressed in hepatic stellate cells (HSC) and to induce proliferation and extracellular matrix (ECM) production in these cells. (Williams et al., J Hepatol 32, 754-761, 2000; Paradis et al., Lab Invest 82, 767-774, 2002). The following experiments were carried out to determine if HSCs adhere to CTGF. HSCs were isolated from normal Sprague-Dowley rate by sequential perfusion with pronase/collagenase and purified by density gradient separation as described in Vyas et al. (Gastroenterology 109: 889-898, 1995).
The cells were subsequently detached using 1 mM EDTA PBS (137 mM NaCl, 2.7 mM KCl, 4.3 mM Na2HPO4, 1.4 mM KH2PO4, pH 7.3), washed twice in DMEM and resuspended in serum free medium containing 0.5% BSA. The cells-were plated (1.25×10^4 cells/well) in a 96 well plate coated with one of the following: 2 μg/ml CTGF isoform (CTGF1-4, CTGF3-4, CTGF4), 1 μg/ml laminin, or 4 μg/ml vitronectin and incubated for 20 minutes at 37° C. Subsequently the cells were washed with PBS and the adherent cells were fixed with 10% formalin and stained with CyQUANT GR dye/cell lysis buffer (Molecular Probes , Eugene, Oreg.) according to the manufacturer's instructions. The number of cells that adhered to CTGF isoforms or ECM protein was quantified by measuring the sample fluorescence intensity at Ex/Em: 480/520 nm using a micro-plate reader (CytoFluor™ 2350).
To determine if the CTGF-mediated HSC adhesion was carried out through integrin receptors, the experiment described above were carried out in the presence and absence of 10 mM EDTA. […] It is widely believed that Mn^2+ induces conformational shifts that mimic the physiological activation of β1 and β3 integrins (Roberts et al., J Biol Chem 278: 1975-1985, 2003, van der Pauw et al., J Periodontal Res 37: 317-323, 2002) as Mn^2+-induced activation leads to enhanced ligand-binding affinity and cell adhesion (Mould et al., J Biol Chem 277: 19800-19805, 2002, Loftus & Liddington J Clin Invest 100: S77-81, 1997, Lin et al., J Biol Chem 272: 14236-14243, […]).
Synthetic peptides GRGDsp (1 mM), GRGEsp (1 mM), Echistatin (2 μM) or vehicle buffer alone were added to the, HSC culture medium 30 minutes prior to plating.
In addition, adhesion assays as described in Example 1 were carried out in CTGF4 coated plates in the presence and absence of monoclonal antibody specific for αvβ3 (LM609).

[2] = system: pancreatic stellate cells (PSC); test: PSC adhesion assay on coated wells; type: cell-based, rat; settings: for inhibition of PSC adhesion to CTGF4: 2 μg/ml CTGF4 coat, peptides 35 μM; for inhibition of PSC adhesion to CTGF4 / inhibition of PSC adhesion to CTGF1-4: antibodies 25 μg/ml, heparin 2 μg/ml
From the text: Rat PSCs were isolated by a modification of the method described by Phillips et al., Gut; 52:677-82, 2003. Briefly, pancreatic tissue was digested in situ with 0.03% collagenase P (Roche, Indianapolis, Ind.) in HBSS by perfusion through the thoracic aorta. This protocol was approved by the Institutional Animal Care and Use Committee of Children's Research Institute, Columbus, Ohio. The tissue was pooled, minced with scissors, and then digested with 0.05% collagenase P, 0.02% protease XIV (Sigma, St. Louis), and DNase I (Roche, Indianapolis, Ind.) in HBSS. The resulting cell suspension was centrifuged in a 12% Optiprep gradient at 1400 g for 14 minutes. Stellate cells separated into a hazy band just above the interface of a the gradient and the aqueous buffer. This band was harvested, and the cells washed and resuspended in DMEM supplemented with 25 mM Hepes buffer, 10% FBS, and 100 U/ml penicillin in, 100 μg/ml streptomycin. The, cells were maintained at 37° C. in a humidified atmosphere of 5% CO2/95% air.
The ability of activated PSC to adhere to non-tissue culture plastic microtiter wells coated with recombinant CTGF1-4, CTGF3-4 or CTGF4 was investigated. The solid phase binding assay was carried out as described in Example 2. […] To assess the possibility that CTGF-mediated PSC adhesion involved cell surface integrins, the effect of divalent cations on cell adhesion was examined, as described in Example 2. […]
Because CTGF is a heparin-binding protein, this property was further investigated.
To identify the peptides that bind to PSCs, cell adhesion assays were carried out as described in Example 3.
To further investigate the peptide binding, P2 or P5 (10 μM) or vehicle buffer alone (no add) were added to PSC cell suspensions for 30 minutes at room temperature.

[3] = system: vascular endothelial cells, intestinal epithelial, and hepatic stellate cells; test: Adhesion of cell types to 10 kDa CTGF; type: cell-based
Experimental: To confirm the functionality of residues 247-349 of SEQ ID NO: 1 (containing module 4 alone; denoted as CTGF4), this region of CTGF was produced as a maltose binding protein (MBP) fusion protein in E. coli as described in Ball et al., J Endocrinol; 176: R1-R7, 2003. […] HPLC-purified 10 kDa CTGF promoted 3T3 cell adhesion in a dose-dependent manner, with maximal binding at 8 ng/well. […] Also, the binding of all cell types to 10 kDa CTGF was reduced by EDTA treatment, though this effect was relatively modest in 3T3 cells. Thus, E coli-derived CTGF isoforms comprising essentially module 4 are intrinsically functional in the absence of the other constituent modules of CTGF.

[4] = system: PSCs; test: PSC chemotaxis (migration) assay in culture insert; type: cell-based, rat
Experimental: To examine whether CTGF plays a role in PSC migration, a chemotaxis assay was carried out in which the migratory behavior of PSCs in the upper chamber of a culture insert was assessed following addition of CTGF to the lower chamber. […] PSC migration was also promoted by FN, PDGF or TGF-β1.

[5] = target: T1, β3 integrin (Homo sapiens, UniProt P05106); settings: Gould et al. 1990; cited from earlier work
T1 sequence (P05106 27-788): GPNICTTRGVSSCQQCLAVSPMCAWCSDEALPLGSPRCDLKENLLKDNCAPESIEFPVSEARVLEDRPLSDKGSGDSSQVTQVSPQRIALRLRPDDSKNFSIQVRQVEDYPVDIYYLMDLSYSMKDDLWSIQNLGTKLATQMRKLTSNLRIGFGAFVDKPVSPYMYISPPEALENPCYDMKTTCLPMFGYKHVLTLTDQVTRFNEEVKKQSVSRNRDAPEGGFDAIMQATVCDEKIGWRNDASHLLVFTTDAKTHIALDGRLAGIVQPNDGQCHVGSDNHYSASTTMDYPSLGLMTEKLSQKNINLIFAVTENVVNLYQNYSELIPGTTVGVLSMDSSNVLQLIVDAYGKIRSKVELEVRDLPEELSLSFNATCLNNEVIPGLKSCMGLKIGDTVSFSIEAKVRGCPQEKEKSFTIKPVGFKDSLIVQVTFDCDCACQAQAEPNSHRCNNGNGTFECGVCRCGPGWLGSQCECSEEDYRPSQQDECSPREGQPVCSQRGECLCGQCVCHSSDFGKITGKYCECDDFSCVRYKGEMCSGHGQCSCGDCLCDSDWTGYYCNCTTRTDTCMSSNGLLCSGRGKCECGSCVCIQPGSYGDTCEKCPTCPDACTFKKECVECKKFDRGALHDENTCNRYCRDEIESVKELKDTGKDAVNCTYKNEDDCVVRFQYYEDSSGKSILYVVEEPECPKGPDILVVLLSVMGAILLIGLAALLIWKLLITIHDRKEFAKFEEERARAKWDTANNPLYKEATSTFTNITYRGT

[6] = target: integrin αvβ3 (Homo sapiens, UniProt P05106+P06756); test: Integrin αvβ3-CTGF immunoprecipitation / immunoblot; type: binding; settings: 20 μM Echistatin
Experimental: To further characterize the interaction between CTGF4 and integrin αvβ3, each CTGF isoforms (CTGF1-4, CTGF3-4, CTGF4) was individually mixed with αvβ3, followed by immunoprecipitation with rabbit anti-CTGF polyclonal antibody and immunoblotting with anti-αvβ3. Human integrin αvβ3 (2 μg) and each individual CTGF isoform (4 μg) were incubated in 1 ml NP40 buffer with rocking at 4° C. for 2 hours. As a control, 20 μM Echistatin was added prior to adding the CTGF isoforms. Subsequently, polyclonal rabbit anti-CTGF antibody (1:100) or mouse IgG was added to the complex and the mixtures were further incubated at 4° C. for 16 hours. After incubation, 25 ,μl of Protein A was added to each mixture for 1 hour. The samples were separated on 8% SDS-polyacrylamide gels, and transferred onto nitrocellulose. The membrane was then incubated with anti-human αvβ3 monoclonal antibody (1:1000) diluted in TBS/Tween 20 (0.05%) containing 5% non-fat milk. Integrin αvβ3 bound similarly to all CTGF isoforms.

[7] = target: integrin α5β1 (Homo sapiens, UniProt P05556+P08648); test: Solid phase ELISA of integrin α5β1 binding; settings: peptides 35 μM; EDTA 5 mM
Experimental: In a second approach, a solid phase binding assay was used in which CTGF1-4 or FN were individually coated onto microtiter wells that were subsequently incubated with purified integrin α5β1. The presence of immobilized integrin α5β1 was detected by ELISA using an anti-integrin α5β1 antibody similar to the methods described in Example 3 above. In addition, CTGF1-4 bound to integrin α5β1 in a dose-dependent manner, with maximal binding at 2 μg/ml CTGF. This level of CTGF1-4 (2 μg/ml) binding was the same as that elicited by 2 μg/ml FN, a well known ligand of integrin α5β1. In a similar experiment, 2 μg/ml of CTGF1-4;CTGF3-4 or CTGF4 were individually precoated onto microtiter wells. Using the solid-phase assay, integrin α5β1 bound to CTGF1-4, CTGF3-4 or CTGF4 See FIG. 5 (Panel B).
To directly analyze whether α5β1 integrin binds to CTGF4, microtiter wells coated with CTGF4 (2 μg/ml) or FN (4 μg/ml) were used in an ELISA assay to detect integrin binding, as described in Example 3. For these assays, 1 μg/ml integrin α5β1, alone or in the presence of 35 μM of P2peptide (CTGF[257-272]) and 35 μM of P5 peptide (CTGF [285-291]), were added to the precoated plates. […] The binding between CTGF4 and integrin α5 β1 was blocked by peptide P5 (CTGF [285-291]) or peptide P2 (CTGF[257-272]). […]

[8] = system: CTGF; test: CTGF production by PSCs (immunoprecipitation); type: cell-based, rat; settings: TGF-β1 20 ng/ml; P<0.01
[9] = system: PSCs; test: PSC DNA synthesis, [3H]thymidine incorporation; type: cell-based, rat; settings: 24 hours; CTGF1-4 effect in 0.1% serum, not in serum-free medium
Experimental: To measure the effect of CTGF on cell proliferation, DNA synthesis was measured by ^3H incorporation in PSCs. The cells were incubated for 24 hours with 0.2 μCi [^3H] thymidine in each well (24-well plate). The incorporation of [^3H] thymidine into PSC DNA was determined using a scintillation counter after the cells had been washed with PBS, fixed with 10% methanol, treated with cold 5% trichloroacetic acid, and lysed in 0.3 N NaOH.

[10] = system: CTGF promoter; test: CTGF promoter luciferase reporter pCCN2-Luc in PSCs; type: cell-based, rat
Experimental: TGF-β1 is a well characterized transcriptional activator of CTGF in other cell types. To further examine the mechanism by which TGF-β1 and other fibrogenic stimulators could influence CTGF production in PSCs, CTGF promoter activity in PSCs was evaluated using the luciferase reporter, pCCN2-Luc, as described in Gao et al., (J Hepatol 2004;40:431-8).

Sequence of integrin αvβ3 (P06756 31-889 limits assumed, one chain of several): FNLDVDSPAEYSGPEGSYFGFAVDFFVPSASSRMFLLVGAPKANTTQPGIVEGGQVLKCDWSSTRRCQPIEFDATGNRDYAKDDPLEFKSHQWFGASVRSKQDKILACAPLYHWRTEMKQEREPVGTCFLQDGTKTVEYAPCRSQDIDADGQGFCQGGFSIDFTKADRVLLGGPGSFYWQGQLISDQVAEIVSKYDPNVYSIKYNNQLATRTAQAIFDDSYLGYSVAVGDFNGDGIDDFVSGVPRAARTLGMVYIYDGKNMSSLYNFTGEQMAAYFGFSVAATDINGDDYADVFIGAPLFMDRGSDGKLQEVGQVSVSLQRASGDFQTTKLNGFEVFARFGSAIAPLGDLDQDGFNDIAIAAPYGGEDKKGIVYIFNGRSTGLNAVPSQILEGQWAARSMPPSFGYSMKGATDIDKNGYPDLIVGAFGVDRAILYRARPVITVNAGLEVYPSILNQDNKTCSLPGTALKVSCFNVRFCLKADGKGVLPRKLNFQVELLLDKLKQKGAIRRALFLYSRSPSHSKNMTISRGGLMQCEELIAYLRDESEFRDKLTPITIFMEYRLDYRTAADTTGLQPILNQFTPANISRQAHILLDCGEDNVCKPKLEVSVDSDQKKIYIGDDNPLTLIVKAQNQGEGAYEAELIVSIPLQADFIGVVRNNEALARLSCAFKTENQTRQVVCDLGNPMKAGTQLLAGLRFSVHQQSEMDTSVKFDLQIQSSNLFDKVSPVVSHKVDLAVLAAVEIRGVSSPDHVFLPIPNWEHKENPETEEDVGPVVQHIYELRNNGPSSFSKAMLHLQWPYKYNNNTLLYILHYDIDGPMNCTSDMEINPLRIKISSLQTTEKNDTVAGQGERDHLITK
Sequence of integrin αvβ3 (P06756 891-1048 partner limits assumed, one chain of several): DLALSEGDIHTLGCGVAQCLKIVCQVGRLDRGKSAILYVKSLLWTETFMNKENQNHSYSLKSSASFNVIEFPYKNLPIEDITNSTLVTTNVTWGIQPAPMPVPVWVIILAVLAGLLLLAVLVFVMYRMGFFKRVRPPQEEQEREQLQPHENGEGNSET
Sequence of integrin α5β1 (P08648 42-894 limits assumed): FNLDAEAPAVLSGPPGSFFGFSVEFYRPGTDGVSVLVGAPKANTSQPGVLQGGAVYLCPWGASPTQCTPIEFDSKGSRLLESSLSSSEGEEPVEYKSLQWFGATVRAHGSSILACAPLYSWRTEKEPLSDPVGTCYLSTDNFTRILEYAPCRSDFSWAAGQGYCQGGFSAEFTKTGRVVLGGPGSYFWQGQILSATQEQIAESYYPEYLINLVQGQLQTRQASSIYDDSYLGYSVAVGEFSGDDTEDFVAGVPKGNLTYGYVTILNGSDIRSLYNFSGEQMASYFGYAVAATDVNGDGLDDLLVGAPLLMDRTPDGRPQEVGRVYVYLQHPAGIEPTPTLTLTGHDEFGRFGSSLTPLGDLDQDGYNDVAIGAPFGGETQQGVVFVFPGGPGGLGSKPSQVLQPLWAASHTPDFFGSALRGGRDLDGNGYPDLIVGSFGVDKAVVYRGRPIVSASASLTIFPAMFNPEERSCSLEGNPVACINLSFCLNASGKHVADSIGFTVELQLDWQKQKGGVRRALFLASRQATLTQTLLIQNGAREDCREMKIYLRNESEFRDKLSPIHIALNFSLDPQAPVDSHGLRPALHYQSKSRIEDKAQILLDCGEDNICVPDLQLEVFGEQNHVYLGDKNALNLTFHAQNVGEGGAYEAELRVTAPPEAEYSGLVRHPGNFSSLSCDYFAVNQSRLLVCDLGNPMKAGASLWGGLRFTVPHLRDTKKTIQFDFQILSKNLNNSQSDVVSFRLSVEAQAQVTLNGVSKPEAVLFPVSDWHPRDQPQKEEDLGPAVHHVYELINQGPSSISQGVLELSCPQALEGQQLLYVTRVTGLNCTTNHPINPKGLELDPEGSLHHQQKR
Sequence of integrin α5β1 (P08648 895-1049 partner limits assumed): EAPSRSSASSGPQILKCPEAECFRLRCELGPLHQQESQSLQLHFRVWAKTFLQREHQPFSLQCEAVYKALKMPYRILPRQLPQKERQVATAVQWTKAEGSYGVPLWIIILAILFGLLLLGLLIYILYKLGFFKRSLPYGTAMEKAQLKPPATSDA
Sequence of integrin α5β1 (P05556 21-798): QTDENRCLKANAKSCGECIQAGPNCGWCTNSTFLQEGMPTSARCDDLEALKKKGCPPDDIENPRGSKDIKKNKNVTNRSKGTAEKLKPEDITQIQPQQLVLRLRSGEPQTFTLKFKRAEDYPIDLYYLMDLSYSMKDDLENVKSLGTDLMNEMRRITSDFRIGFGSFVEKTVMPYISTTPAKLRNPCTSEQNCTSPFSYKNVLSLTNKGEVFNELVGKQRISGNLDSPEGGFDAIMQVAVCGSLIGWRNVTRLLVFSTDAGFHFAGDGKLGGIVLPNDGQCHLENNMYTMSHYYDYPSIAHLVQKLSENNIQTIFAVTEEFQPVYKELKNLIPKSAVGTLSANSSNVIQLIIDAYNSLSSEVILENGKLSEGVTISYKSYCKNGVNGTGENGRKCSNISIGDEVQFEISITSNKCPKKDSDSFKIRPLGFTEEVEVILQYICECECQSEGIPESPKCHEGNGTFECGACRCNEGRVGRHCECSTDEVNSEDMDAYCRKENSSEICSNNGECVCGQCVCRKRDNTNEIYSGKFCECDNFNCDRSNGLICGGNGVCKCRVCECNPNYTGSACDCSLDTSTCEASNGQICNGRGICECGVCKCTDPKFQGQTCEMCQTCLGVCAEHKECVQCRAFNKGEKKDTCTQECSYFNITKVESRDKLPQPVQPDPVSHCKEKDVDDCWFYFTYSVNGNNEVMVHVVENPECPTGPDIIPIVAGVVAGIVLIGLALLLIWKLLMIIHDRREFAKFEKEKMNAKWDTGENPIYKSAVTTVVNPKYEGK

heparin
inhibition of HSC adherence to CTGF[257-272] [1]: abrogated
inhibition of CTGF4-mediated HSC adhesion [1]: completely abrogated
inhibition of vitronectin-mediated HSC adhesion ([1]; wells coated 4 μg/ml vitronectin): little effect
inhibition of PSC adhesion to CTGF4 ([2]; EDTA 5 mM): blocked
inhibition of PSC adhesion to CTGF1-4 ([2]; EDTA 5 mM): blocked
inhibition of FN-mediated PSC adhesion ([2]; fibronectin coat): little effect
inhibition of binding of each cell type to 10 kDa CTGF ([3]; 5 μg/ml heparin, each cell type incl. 3T3): completely inhibited
inhibition of PSC migration in response to CTGF ([4]; CTGF1-4 or CTGF4): blocked

Echistatin (QCESGPCCRNCKFLKEGTICKRARGDDMDDYCNGKTCDCPRNPHKGPAT)
inhibition of HSC adherence to CTGF[257-272] [1]: 40%
inhibition of CTGF1-4-mediated HSC adhesion [1]: 58%
inhibition of CTGF3-4-mediated HSC adhesion [1]: 62%
inhibition of CTGF4-mediated HSC adhesion [1]: 69%
effectiveness relative to short RGDX peptides [5]: at least 500 times
competition for the binding of αvβ3 with CTGF4 [6]: fully competed

O=C(O)CN(CCN(CC(=O)O)CC(=O)O)CC(=O)O [EDTA, reference compound]
inhibition of CTGF1-4-mediated HSC adhesion [1]: 50%
inhibition of CTGF3-4-mediated HSC adhesion [1]: 50%
inhibition of CTGF4-mediated HSC adhesion [1]: 90%
inhibition of PSC adhesion to CTGF4 ([2]; EDTA 5 mM): significantly decreased
inhibition of PSC adhesion to CTGF3-4 ([2]; EDTA 5 mM): significantly decreased
inhibition of PSC adhesion to CTGF1-4 ([2]; EDTA 5 mM): significantly decreased
binding of all cell types to 10 kDa CTGF after EDTA treatment ([3]; effect relatively modest in 3T3 cells): reduced
inhibition of binding between CTGF4 and integrin α5β1 [7]: blocked

TGF-β1: transcriptional activator of CTGF
CTGF1-4, CTGF3-4 and CTGF4 levels in cell lysates and conditioned medium [8]: significantly increased
PSC proliferation (DNA synthesis) [9]: did not induce proliferation
activity of pCCN2-Luc in PSC ([10]; P<0.01 compared with no stimulation): significantly increased
activation of pCCN2-Luc compared among four stimulators ([10]; P<0.05): strongest activation
PSC migration ([4]; substance in lower chamber): promoted
